In the METLIN SMRT retention time set (Domingo-Almenara et al. 2019):

Assay: gradient 5% acetonitrile 3 min, to 50% in 2 min, to 85% in 15 min, held 3 min, 100 µL/min
Conditions: column: Zorbax Extend-C18 2.1 x 50 mm; eluents: water / acetonitrile, 0.1% formic acid
Outline: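 Pure standards were analyzed in mixtures of ~100 molecules using HPLC coupled to a quadrupole time-of-flight mass spectrometer, in both positive and negative ionization mode. Separation used a Zorbax Extend-C18 column (2.1 × 50 mm, 1.8 μm) at 100 μL/min, with water and acetonitrile each containing 0.1% formic acid. Dead and dwell volumes were 40 μL and 900 μL, and data were collected over 3 months. Retention time was read from computationally picked adduct peaks, each inspected manually.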

COc1ccc(N2CCN(C(=O)Cn3ccc4c(c(C)nn4-c4ccccc4)c3=O)CC2)cc1
RP-LC retention time: 736 s

CCc1cccc(NC(=O)Cn2ccc3sccc3c2=O)c1
RP-LC retention time: 800 s

Cc1nc(N2CCN(c3ccc(F)cc3)CC2)ncc1C(=O)O
RP-LC retention time: 888 s

Cc1ccc(C(=O)N2[C@H]3CC[C@@H]2c2cnc(-c4ccc(F)cc4)nc2C3)cn1
RP-LC retention time: 735 s

CC(C)Cc1nnc(NC(=O)C2CCN(C(=O)c3cccc(F)c3)CC2)s1
RP-LC retention time: 780 s

O=C(Nc1ccc(F)cc1Cl)c1c(O)c2cccnc2n(-c2ccc(F)cc2)c1=O
RP-LC retention time: 1300 s

CCOc1ccccc1NC(=O)Cn1nc2c3sc(N(C)C)nc3ncn2c1=O
RP-LC retention time: 724 s

Cc1ccc(NC(=O)C2CCc3sc(C(=O)N4CCOCC4)cc3C2)cc1 (stereo unspecified)
RP-LC retention time: 842 s

COc1ccc(-c2ccc(N3CCN(C(=O)c4cnc5ccccc5n4)CC3)nn2)cc1
RP-LC retention time: 615 s

Cc1nnc(NC(=O)CCn2cnc3ccccc3c2=O)s1
RP-LC retention time: 588 s

Cc1ccc(CNC(=O)C2(C)CN(S(C)(=O)=O)CC(=O)N2c2ccc(C)cc2C)cc1 (stereo unspecified)
RP-LC retention time: 864 s

COc1cc(OC)c(NC(=O)Cn2c(N(C)Cc3ccccc3)nc(C)cc2=O)cc1Cl
RP-LC retention time: 818 s

Cc1cc(C)cc(NC(=O)C2CCN(S(=O)(=O)c3c(C)nn(-c4ccccc4)c3C)CC2)c1
RP-LC retention time: 1060 s

O=C(CCc1nc2ccccc2s1)N1C[C@H]2CNC(=O)[C@]23CCCC[C@@H]13
RP-LC retention time: 705 s

CN(Cc1nc2cc(C(=O)N3CCCC3)ccc2n1C)C(=O)Nc1cccc(Br)c1
RP-LC retention time: 665 s

Cc1ccc2c(c1)NC(=O)c1cc(NC(=O)c3ccno3)ccc1O2
RP-LC retention time: 719 s

Cc1ccc(CNC(=O)C2(C)CN(S(C)(=O)=O)CC(=O)N2Cc2ccc(C)cc2)cc1 (stereo unspecified)
RP-LC retention time: 899 s

CCOc1ccc(C2Cn3nnc(-c4nc(-c5cccc(C)c5)no4)c3CO2)cc1 (stereo unspecified)
RP-LC retention time: 1270 s

O=C(CN1C(=O)NC2(CCCCC2)C1=O)Nc1ccc(Br)cc1F
RP-LC retention time: 826 s

OC1CCOC2(CCN(Cc3ccccc3OC(F)(F)F)CC2)C1 (stereo unspecified)
RP-LC retention time: 602 s

CC(C)(C)Sc1ccc2nn(CC(=O)Nc3ccccc3C(F)(F)F)c(=O)n2n1
RP-LC retention time: 816 s

CCn1c(=O)c(=O)n(CC(=O)NCCN2CCCC2)c2cccnc21
RP-LC retention time: 559 s

CCS(=O)(=O)Nc1ccc(C2(C(=O)NCc3ccccc3)CCCCC2)cc1
RP-LC retention time: 903 s

Cn1ncc(Br)c1C(=O)N1CCCC1c1ccc(F)cc1 (stereo unspecified)
RP-LC retention time: 832 s

CC(=O)Nc1cccc(Oc2nc(C)nc3sc4c(c23)CCCC4)c1
RP-LC retention time: 913 s

CCCn1ccc2sc(C)c(C(=O)NCc3ccc(C)o3)c2c1=O
RP-LC retention time: 867 s

CC(C)n1c2ccccc2c2nnc(SCC(=O)Nc3nc(-c4ccccc4)cs3)nc21
RP-LC retention time: 1040 s

O=C1COc2ccc(S(=O)(=O)N3CCC(C(=O)Nc4ccc(F)cc4F)CC3)cc2N1
RP-LC retention time: 763 s

Cc1ccc(CNC(=O)CCc2c(C)nn(-c3cc(N4CCOCC4)ncn3)c2C)o1
RP-LC retention time: 700 s

Cc1ccccc1CC(=O)N1CCc2cc(-c3ccno3)ccc21
RP-LC retention time: 1020 s

CN(C)c1ccc(C(=O)NC2CCN(c3ccccc3)C2=O)cc1 (stereo unspecified)
RP-LC retention time: 713 s

CCN1C=C(C(=O)OCc2ccccc2)C(C)=NS1(=O)=O
RP-LC retention time: 958 s

CCOc1ccc2ncc(S(=O)(=O)c3ccc(C)cc3)c(N3CCN(C)CC3)c2c1
RP-LC retention time: 667 s

COc1ccc2nc(C(=O)NCc3ccccc3F)cn2n1
RP-LC retention time: 806 s

CN(C(=O)Nc1ccccc1)C1CCc2nn(CC3CC3)c(=O)n2CC1 (stereo unspecified)
RP-LC retention time: 681 s

CC(C)Cn1c(=O)c2sccc2n2c(CCC(=O)NCc3cc(F)ccc3F)nnc12
RP-LC retention time: 622 s
